Assay results as given in paper PMC2881055, “Endocytic pathways mediating oligomeric Aβ42 neurotoxicity” (Molecular Neurodegeneration, 2010).

Assays:
N2A cells [1] = assay: oAβ42-induced neurotoxicity in N2A cells, with inhibitor or siRNA (CellTiter-Glo ATP assay); assay type: cell-based, mouse; parameters: effect on Aβ42 toxicity: dose or concentration left out as unconfirmed
Protocol: Small interfering RNA (siRNA) for the clathrin heavy chain (CLTC, SMARTpool L-004001-00-0005) and control Non-Targeting siRNA were purchased from Dharmacon. Cells were transfected at 20 pmol siRNA in 24-well culture plates using LipofectAmine 2000 according to vendor's recommended transfection protocol. A second transfection was done the next day. These transfected cells were then split and seeded on to 96-well plate in MEM with 10% FBS. 48 hours post-transfection, these cells were treated with oAβ42 for 24 hours.

N2A cells [2] = system: N2A cells; parameters: lethality to N2A cells: dose or concentration left out as unconfirmed; conditions: cited from earlier work
N2A cells [3] = system: N2A cells
Protocol: Mouse neuroblastoma, N2A cells (ATCC) were maintained in MEM (ATCC) supplemented with 10% FBS, 2 mM L-glutamine, 100 U/ml of penicillin, 100 ug/ml of streptomycin, as previously described. 5000 cells per well were plated on to 96-well plates 24 hours prior to treatment to allow attachment. Cells were then treated […] oAβ42 in DMEM medium without phenol red and with 1% N2 supplement (Invitrogen). At the end of the experiment (24 hours post-treatment), cell viability was assessed by relative cellular ATP levels using CellTiter-Glo assay kit (Promega) according to the manufacture's instruction. Statistical significance was established at p < 0.01 by One-way ANOVA with Tukey test for comparison in different groups.
N2A cells were treated with pharmacological inhibitors that block specific steps during endocytosis. […] Chlorpromazine (2 mM), genistein ([…]), PP2 (1 mM) were added to cell cultures at indicated concentrations 1 hr before oAβ42 treatment in DMEM with 1% N2 supplement. The final concentration of vehicle (DMSO) was 0.05% in all cultures.

neuroblastoma cell line = system: neuroblastoma cell line; parameters: method as in PMID 3796890; conditions: cited from earlier work
SH-SY5Y cells = conditions: cited from earlier work
Description: (§1) Dynamin mediates both clathrin-dependent and -independent endocytosis (for review, [76]). We first used two pharmacological inhibitors to block the dynamin-dependent endocytic pathway, genistein (a general tyrosine kinase inhibitor) and PP2 (a Src family tyrosine kinase inhibitor). […] The result was consistent with previous reports that this agent protected from Aβ induced toxicity in cultured hippocampal neurons and SH-SY5Y cells.

[4] = system: cultured hippocampal neurons; conditions: cited from earlier work
Description: as §1

N2A cells [5] = conditions: co-cultures of primary neurons and glia, and Neuro-2A cells (N2A); cited from earlier work
Description: Here we focus mainly on endocytic pathways in relation to oAβ42 toxicity in N2A cells.

## CC(C)(C)n1nc(-c2ccc(Cl)cc2)c2c(N)ncnc21 [PP2]
N2A cells [1]; PP2 pre-treatment 1 hr before oAβ42, 24 hours, data not shown
  effect on Aβ42 toxicity: decreased Aβ42 toxicity though to a lesser extent than genistein
N2A cells [2]
  lethality to N2A cells: lethal

## CN(C)CCCN1c2ccccc2Sc2ccc(Cl)cc21 [chlorpromazine]
N2A cells [3]
  toxicity to N2A cells: toxic
N2A cells [3]; N2A cells, 2 mM chlorpromazine, ATP-based CellTiter-Glo
  cell viability retained: 90%
N2A cells [1]; 2 mM chlorpromazine added 1 hr before oAβ42, 24 hours, data not shown
  effect on oAβ42 neurotoxicity: failed to block
Neuroblastoma cell line; 10^-4-10^-3 M
  effect on cells at higher concentration: killed cells
Neuroblastoma cell line; 10^-6-10^-5 M
  effect on Ca++-mediated toxicity at lower concentration: inhibited Ca^++-mediated toxicity

## O=c1c(-c2ccc(O)cc2)coc2cc(O)cc(O)c12 [genistein]
N2A cells [1]; pre-treated with 10 mM genistein for 1 hour, 10 μM oAβ42 for 24 hours, p < 0.01
  effect on oAβ42-induced toxicity: significantly inhibited
SH-SY5Y cells
  protection from Aβ induced toxicity: protected
[4]
  protection from Aβ induced toxicity: protected
N2A cells [2]; read-out: IC50, inhibition of growth of N2A cells, dose-dependent
  IC50: 18 µM

## oAβ42: Oligomer preparation of recombinant Aβ42 (rPeptide), formed in DMSO/Ham's F12 at 4°C for 24 hours
N2A cells [5]
  neurotoxicity of the oAβ42 preparation: causes neurotoxicity
